# Values joined by “and” are separate entries in the source; they are usually repeats but may differ in a detail not shown here. Identical values can stand only once. “Also recorded” adds a separate entry of the source. Like-named read-outs stand apart in the source and are kept apart here.
# What was measured:
# [1] = Reducing power (potassium ferricyanide, absorbance at 700 nm); details: concentration at which absorbance at 700 nm reached 0.5
# Description: The mixture was incubated at 50 °C for 20 min, after which 0.5 mL of 10% (,w/v) trichloroacetic acid solution was added. Following centrifugation at 3000 rpm for 10 min, 0.5 mL of the supernatant was transferred to a new test tube, and 0.5 mL of distilled water along with 0.1 mL of 0.1% (,w/v) ferric chloride solution were added. After 10 min of incubation, absorbance was measured at 700 nm. Higher absorbance values correspond to stronger reducing activity. The IC50 value was defined as the concentration at which the absorbance reached 0.5.
# [2] = ABTS radical scavenging activity
# Description: The modified ABTS assay was carried out as described by Foss et al. with appropriate modifications. A 7 mM ABTS solution was mixed in equal volumes with 2.45 mM potassium persulfate and kept in the dark at room temperature for 12–16 h to generate the ABTS•^+ stock solution. […] Absorbance was recorded at 734 nm. PBS served as the blank, while Trolox was used as the standard. The results were reported as IC50 value, representing the concentration of sample required to scavenge 50% of ABTS•^+ radicals.
# [3] = DPPH radical scavenging activity
# Description: The DPPH• scavenging capacity was evaluated following the method of Nakbi et al.. […] The mixture was vortexed and incubated at room temperature for 30 min. Absorbance was then measured at 517 nm and recorded as Ai. For the control experiment, 10 μL of anhydrous ethanol replaced the sample soluition, while all other steps were identical, and the absorbance was recorded as Ac. To correct for background, 10 μL of sample solution was mixed with 240 μL of anhydrous ethanol alone, and the absorbance at 517 nm was recorded as A0.
# [4] = Oxygen radical absorption capacity (ORAC)
# Description: The ORAC analysis method was adapted from Wang et al.with adjustments. The trial was conducted in 75 mM PBS (pH 7.4). […] AAPH was freshly dissolved in PBS at 38.25 mM and maintained in an ice-water bath. […] The reaction was initiated by adding 100 μL of AAPH solution, and fluorescence intensity was recorded every minute for 100 min to generate a fluorescence decay curve (Thermo Fisher Scientific, Waltham, MA, USA). Trolox served as the reference standard, while PBS functioned as the blank. ORAC values were determined from the net area under the fluorescence decay curve and expressed as Trolox equivalents per sample [22].
# XOD (xanthine oxidase) [5] = molecular target: T1, XOD (xanthine oxidase) (Bos taurus, UniProt P80457); experiment: XOD inhibitory activity in vitro (enzymatic reaction, HPLC of UA); format: biochemical, bovine
# T1 sequence (P80457 whole entry): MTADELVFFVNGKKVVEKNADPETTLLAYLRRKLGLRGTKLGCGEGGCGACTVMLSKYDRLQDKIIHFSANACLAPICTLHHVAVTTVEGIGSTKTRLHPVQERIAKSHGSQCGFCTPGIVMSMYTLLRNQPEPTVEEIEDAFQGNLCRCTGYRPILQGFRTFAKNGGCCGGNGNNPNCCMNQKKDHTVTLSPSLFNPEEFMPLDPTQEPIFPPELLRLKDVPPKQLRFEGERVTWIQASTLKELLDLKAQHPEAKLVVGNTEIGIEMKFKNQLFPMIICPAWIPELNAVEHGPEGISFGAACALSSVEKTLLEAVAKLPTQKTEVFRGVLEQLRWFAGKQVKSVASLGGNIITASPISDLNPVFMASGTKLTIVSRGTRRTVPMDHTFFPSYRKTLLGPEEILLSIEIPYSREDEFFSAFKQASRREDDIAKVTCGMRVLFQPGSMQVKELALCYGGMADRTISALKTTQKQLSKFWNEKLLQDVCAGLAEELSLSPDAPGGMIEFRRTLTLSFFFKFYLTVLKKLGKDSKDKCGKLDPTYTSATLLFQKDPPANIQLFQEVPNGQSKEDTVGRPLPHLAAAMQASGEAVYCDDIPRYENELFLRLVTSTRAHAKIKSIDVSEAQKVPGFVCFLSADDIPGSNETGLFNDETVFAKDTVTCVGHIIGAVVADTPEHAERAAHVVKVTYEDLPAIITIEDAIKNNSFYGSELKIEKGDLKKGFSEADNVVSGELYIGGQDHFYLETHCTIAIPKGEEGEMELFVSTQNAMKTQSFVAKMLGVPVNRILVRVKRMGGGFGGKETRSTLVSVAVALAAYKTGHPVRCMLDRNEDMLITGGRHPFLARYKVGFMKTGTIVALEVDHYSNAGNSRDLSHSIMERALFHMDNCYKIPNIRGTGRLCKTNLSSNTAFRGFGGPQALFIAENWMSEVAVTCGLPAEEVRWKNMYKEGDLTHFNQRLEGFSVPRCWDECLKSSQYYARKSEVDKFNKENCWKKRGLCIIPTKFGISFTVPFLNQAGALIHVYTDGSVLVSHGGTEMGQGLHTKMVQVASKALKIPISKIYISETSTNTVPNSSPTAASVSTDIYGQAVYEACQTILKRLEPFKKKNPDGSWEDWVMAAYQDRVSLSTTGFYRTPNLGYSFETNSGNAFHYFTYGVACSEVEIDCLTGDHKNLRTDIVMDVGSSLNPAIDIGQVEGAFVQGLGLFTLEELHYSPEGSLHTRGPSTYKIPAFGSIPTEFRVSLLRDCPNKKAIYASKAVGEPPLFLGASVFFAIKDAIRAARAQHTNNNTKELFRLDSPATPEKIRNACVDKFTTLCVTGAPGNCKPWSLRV
# Description: The XOD inhibitory activity of the samples was assessed using an enzymatic reaction followed by HPLC analysis. Briefly, 50 μL of XOD (0.05 U/mL in 200 mM PBS, pH 7.5) was combined with either 50 μL of PBS (control) or 50 μL of the sample solution. The reaction mixture was equilibrated at 37 °C for 5 min, after which 150 μL of 0.40 mM xanthine was added. The reaction proceeded at 37 °C for 10 min and was terminated by adding 80 μL of 1.0 M HCl.
# UA production was measured using an HPLC system (Agilent Technologies, Santa Clara, CA, USA) equipped with a UV detector. The reaction solution was diluted 20-fold and filtered, and 10 μL of the filtrate was injected into an Agilent Eclipse XDB-C18 column (150 × 4.6 mm, 5 μm). The mobile phase, consisting of 10% methanol and 90% 10 mM sodium phosphate buffer (pH 5.5), was delivered isocratically at 1.0 mL/min. UA was detected at 292 nm with the column maintained at 25 °C. Concentrations were calculated based on an external calibration curve. XOD inhibition was expressed as the percentage reduction of UA formation, and the IC50 value was defined as the sample concentration at which 50% inhibition was achieved.
# XOD (xanthine oxidase) [6] = molecular target: T1, XOD (xanthine oxidase); experiment: Kinetic mechanisms of XOD inhibition (Lineweaver-Burk); format: biochemical, bovine; details: for Inhibition types: Lineweaver-Burk plots; for Kis (inhibition constant for the XOD-substrate complex): mixed inhibition model; for Ki: read-out: Ki (inhibition constant for XOD)
# Description: The inhibition kinetics of XOD by FA, CA, GA, and PA were evaluated using Lineweaver–Burk plots. The inhibitor concentrations were as follows: FA (0, 2.0, 3.0, and 4.0 mM), CA (0, 1.0, 2.0, and 4.0 mM), GA (0.2, 1.0, 2.0, and 4.0 mM), and PA (1.0, 2.0, 5.0, and 10.0 mM). The substrate (xanthine) concentrations were fixed at 0.1, 0.2, 0.3, and 0.4 mM. XOD (0.05 U/mL) was used, and the initial reaction velocity (v) was calculated based on UA formation.
# Lineweaver–Burk plots were established by plotting 1/v against 1/[s] for each inhibitor concentration. Four linear regressions were obtained for each inhibitor, enabling the determination of the inhibition type. […] The slope and intercept of the Lineweaver–Burk plot were plotted against inhibitor concentration [I], yielding the following equations: (3) and (4).
# V denotes the reaction rate, Vmax the maximum rate, Km the Michaelis constant, Ki the inhibition constant for XOD, and Kis the inhibition constant for the XOD–substrate complex. Decreased Ki or Kis values indicate stronger inhibitory activity.
# XOD [7] = molecular target: T2, XOD (Bos taurus, UniProt P80457); experiment: Fluorescence quenching of XOD (Stern-Volmer); format: binding, bovine; details: for Kq (quenching rate constant) / n (number of binding sites): 298 K
# T2 construct: XOD (7.2 units/mL, derived from bovine milk); purchased Sigma-Aldrich (St. Louis, MO, USA); host or cells: bovine milk
# T2 sequence (P80457 whole entry): as above
# Description: In brief, 100 µL of XOD (0.05 U/mL in 200 mM PBS, pH 7.5) was combined with 100 µL of each phenolic acid at final concentrations of 0, 50, 100, 200, 300, 400, and 500 μM. The mixtures were incubated at 25 °C for 10 min, and fluorescence emission spectra were recorded using a microplate reader (Thermo Fisher Scientific, Waltham, MA, USA) with an excitation wavelength of 280 nm and an emission collected from 310 to 500 nm. PBS was used as the blank, and background fluorescence was subtracted to ensure accuracy.
# The binding mechanisms of FA, CA, GA, and PA to XOD were investigated using the fluorescence quenching method at seven different concentrations.
# F0 and F denote the fluorescence intensities of XOD in the absence and presence of quenchers (FA, CA, GA, and PA), respectively. The quenching constant (Ksv) is, obtained from the linear fitting of F0/F against the quencher concentration [Q]. The quenching rate constant is expressed as Kq, while τ0 represents the average lifetime of the fluorophore in the absence of a quencher (typically 10^−9 s). The effective quenching constant of the accessible fluorophore is designated as Ka, and fa corresponds to the fraction of fluorescence accessible to quenching. The binding constant is indicated by K, and n stands for the number of binding sites.
# XOD [8] = molecular target: T2, XOD; experiment: CD spectroscopy, secondary structure of XOD; set-up: species or system bovine; details: for α-helix content of XOD: XOD with phenolic acid (300 μM solution, equal volumes), XOD alone 36.70; for β-sheet content of XOD: XOD with phenolic acid, XOD alone 13.87
# Description: CD spectroscopy was employed to determine the conformational structure of XOD in the presence of phenolic compounds. Spectra were recorded in the wavelength range of 190–250 nm using a scanning rate of 100 nm/min, with continuous nitrogen purging at room temperature. XOD was prepared at 2.0 mg/mL in PBS (200 mM, pH 7.5) and then diluted 6-fold to 0.33 mg/mL. Phenolic compounds were dissolved in PBS at 300 μM, and equal volumes of XOD and phenolic solutions were joined in equal amounts. CD spectra of the mixtures were recorded with the PBS as the background, and secondary structure content of XOD was analyzed employing the SELCON3 algorithm on the DichroWeb server (http://dichroweb.cryst.bbk.ac.uk/html/home.shtml).
# The CONTIN program was used to determine the secondary structure composition of XOD (Figure 3B).
# BRL-3a cells = experiment: UA levels in xanthine-treated BRL-3A cells; format: cell-based; details: vs model group
# Description: UA levels were measured following the method of Liu et al.. […] After 48 h of incubation, supernatants were collected, spun at 1000× g for 5 min, then the UA level was quantified with the UA assay kit.
# [9] = XOD 0.05 U/mL, 0.40 mM xanthine, 37 °C, pH 7.5, read-out: IC50 of XOD inhibitory activity
SMILES,Reducing Power [1],IC50 [2] [µM],IC50 [3] [µM],ORAC Value ([4]; Trolox equivalents),IC50 (XOD (xanthine oxidase) [5]; [9]) [µM],Inhibition types (XOD (xanthine oxidase) [6]),Vmax (XOD (xanthine oxidase) [6]; inhibitor 2.0 mM) [mM/min],Vmax (XOD (xanthine oxidase) [6]; inhibitor 4.0 mM) [mM/min],Kis (inhibition constant for the XOD-substrate complex) (XOD (xanthine oxidase) [6]) [mM],Ki (XOD (xanthine oxidase) [6]) [µM],Kd (XOD [7]) [µM],Kq (quenching rate constant) (XOD [7]),n (number of binding sites) (XOD [7]),α-helix content of XOD (XOD [8]) [%],β-sheet content of XOD (XOD [8]) [%],Vmax (XOD (xanthine oxidase) [6]; inhibitor 1.0 mM) [mM/min],also measured
"COc1cc(/C=C/C(=O)O)ccc1O [Ferulic acid, ferulic acid]",0.74 ± 0.05 c mM,300,800 ± 30,7.99 ± 0.24 c mmol TE/mmol,2040 ± 110,Mixed inhibition,1.39,0.95,1.78,890,7140,0.16 ± 0.01 1012 L*mol-1*s-1,0.70 ± 0.01,36.37,14.07,,"Inhibition types (XOD (xanthine oxidase) [6]; listed as FA): mixed inhibition with competitive dominance; Vmax (XOD (xanthine oxidase) [6]; inhibitor 3.0 mM): 1.04 mM/min; UA levels (BRL-3a cells; 25–100 μM, 1 mM xanthine, 48 h, p < 0.05, listed as FA): significantly reduced uric acid (UA) concentration; also recorded: significantly reduced UA levels"
"O=C(O)c1cc(O)c(O)c(O)c1 [Gallic acid, gallic acid]",0.20 ± 0.01 mM·days,20,180 ± 10,20.12 ± 0.74 a mmol TE/mmol,,Mixed inhibition,4.72,3.61,3.05,,139,0.26 ± 0.01 1012 L*mol-1*s-1,1.13 ± 0.00,37.33,13.30,4.83,"Reducing Power ([1]; listed as GA): 0.20 ± 0.01 mM; ORAC Value [4]: 20.12 ± 0.74 mM; IC50 (XOD (xanthine oxidase) [5]): 870 ± 30 µM; inhibitory efficacy of GA relative to PA (XOD IC50) (XOD (xanthine oxidase) [5]; GA vs PA): approximately 14.62 fold; Inhibition types (XOD (xanthine oxidase) [6]; listed as GA): mixed but predominantly non-competitive inhibition; Vmax (XOD (xanthine oxidase) [6]; inhibitor 0.2 mM): 4.90 mM/min; UA levels (BRL-3a cells; 25 μM, 1 mM xanthine, 48 h, listed as GA): significantly reduced UA levels"
"O=C(O)c1ccc(O)c(O)c1 [Protocatechuic acid, protocatechuic acid]",0.12 ± 0.01 mM·days,400 ± 20,620,6.63 ± 0.09 d mmol TE/mmol,12700 ± 670,Mixed inhibition,0.72,,17.76,3210,719,0.18 ± 0.01 1012 L*mol-1*s-1,0.98 ± 0.02,35.77,14.47,0.79,"Reducing Power ([1]; listed as PA): 0.12 ± 0.01 mM; Inhibition types (XOD (xanthine oxidase) [6]; listed as PA): mixed inhibition with competitive dominance; Vmax (XOD (xanthine oxidase) [6]; inhibitor 5.0 mM): 0.69 mM/min; Vmax (XOD (xanthine oxidase) [6]; inhibitor 10.0 mM): 0.68 mM/min; UA levels (BRL-3a cells; 25–100 μM, 1 mM xanthine, 48 h, p < 0.05, listed as PA): significantly reduced uric acid (UA) concentration; also recorded: significantly reduced UA levels"
"Cc1c(C)c2c(c(C)c1O)CCC(C)(C(=O)O)O2 (stereo not drawn) [Trolox, 6-Hydroxy-2,5,7,8-tetramethylchromane-2-carboxylic acid, reference compound]",2.62 ± 0.20 mM and 2.62 ± 0.20 b (Trolox) mM,3410 ± 120,680 ± 10,,,,,,,,,,,,,,
"Oc1ncnc2[nH]ncc12 [allopurinol, reference compound]",,,,,,,,,,,,,,,,,"UA levels (BRL-3a cells; positive control, p < 0.05): significantly lower UA levels"
"O=C(O)/C=C/c1ccc(O)cc1 [p-Coumaric acid, p-coumaric acid]",6.98 ± 0.13 a mM,230 ± 10,19400 ± 1240,9.64 ± 0.27 b mmol TE/mmol,7610 ± 300,Mixed inhibition,0.74,0.68,6.04,1420,99.9 ± 4.49,0.91 ± 0.01 1012 L*mol-1*s-1,1.01 ± 0.00,36.20,14.70,0.79,"Inhibition types (XOD (xanthine oxidase) [6]; listed as CA): mixed inhibition with competitive dominance; UA levels (BRL-3a cells; 25–100 μM, 1 mM xanthine, 48 h, p < 0.05, listed as CA): significantly reduced uric acid (UA) concentration; also recorded: significantly reduced UA levels"
